According to patent US8492561B2, “Azetidine derivatives as sphingosine 1-phosphate (S1P) receptor modulators” (Allergan, Inc., priority 2010, dated 2013):
pEC50: −log10 of the molar value.

Molecular target: T1, human S1P1 receptor (Homo sapiens, UniProt P21453)
T1 construct: expressed in transfected cells; membranes from cells stably expressing the S1P1 receptor
Experiment: GTP γ35S binding assay for S1P1 activity
Type: biochemical
Conditions: membranes of cells stably expressing the S1P1 receptor, agonist potency
Procedure: Compounds were synthesized and tested for S1P1 activity using the GTP γ^35S binding assay. These compounds may be assessed for their ability to activate or block activation of the human S1P1 receptor in cells stably expressing the S1P1 receptor.
GTP γ^35S binding was measured in the medium containing (mM) HEPES 25, pH 7.4, MgCl2 10, NaCl 100, dithiothreitol 0.5, digitonin 0.003%, 0.2 nM GTP γ^35S, and 5 μg membrane protein in a volume of 150 μl. Test compounds were included in the concentration range from 0.08 to 5,000 nM unless indicated otherwise. Membranes were incubated with 100 μM 5′-adenylylimmidodiphosphate for 30 min, and subsequently with 10 μM GDP for 10 min on ice. Drug solutions and membrane were mixed, and then reactions were initiated by adding GTP γ^35S and continued for 30 min at 25° C. Reaction mixtures were filtered over Whatman GF/B filters under vacuum, and washed three times with 3 mL of ice-cold buffer (HEPES 25, pH7.4, MgCl2 10 and NaCl 100). Filters were dried and mixed with scintillant, and counted for ^35S activity using a β-counter. Agonist-induced GTP γ^35S binding was obtained by subtracting that in the absence of agonist. Binding data were analyzed using a non-linear regression method. In case of antagonist assay, the reaction mixture contained 10 nM S1P in the presence of test antagonist at concentrations ranging from 0.08 to 5000 nM.

T1 sequence (P21453 whole entry): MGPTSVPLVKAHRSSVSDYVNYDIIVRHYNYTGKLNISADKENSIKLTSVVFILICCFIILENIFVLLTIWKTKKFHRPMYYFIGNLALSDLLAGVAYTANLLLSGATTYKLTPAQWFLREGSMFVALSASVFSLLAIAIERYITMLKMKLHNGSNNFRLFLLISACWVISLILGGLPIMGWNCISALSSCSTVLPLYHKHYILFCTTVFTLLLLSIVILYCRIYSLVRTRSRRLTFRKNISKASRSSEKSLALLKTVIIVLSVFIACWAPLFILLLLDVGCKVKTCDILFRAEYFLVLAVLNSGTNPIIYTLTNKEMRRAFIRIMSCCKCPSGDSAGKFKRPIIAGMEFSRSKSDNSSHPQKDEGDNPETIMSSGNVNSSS

SMILES: Cc1ccc(CC(C#Cc2ccc(CN3CC(C(=O)O)C3)cc2)c2cccc(Cl)c2)cc1C (stereo not shown) [Compound 1, 1-{4-[3-(3-chlorophenyl)-4-(3,4-dimethylphenyl)but-1-yn-1 yl]benzyl}azetidine-3-carboxylic acid]
- pEC50: 7.80

SMILES: Cc1ccc(CC(C#Cc2ccc(CN3CC(C(=O)O)C3)cc2C)c2cccc(Cl)c2)cc1C (stereo not shown) [Compound 2, 1-{4-[3-(3-Chloro-phenyl)-4-(3,4-dimethyl-phenyl)-but-1-ynyl]-3-methyl-benzyl}-azetidine-3-carboxylic acid]
- pEC50: 6.22

SMILES: COc1cccc(C(C#Cc2ccc(CN3CC(C(=O)O)C3)cc2)Cc2ccc(C)c(C)c2)c1 (stereo not shown) [Compound 3, 1-{4-[4-(3,4-dimethylphenyl)-3-(3-methoxyphenyl)but-1-yn-1-yl]benzyl}azetidine-3-carboxylic acid]
- pEC50: 7.37

SMILES: Cc1ccc(CC(C#Cc2ccc(CN3CC(C(=O)O)C3)cc2)c2ccc(Cl)cc2)cc1C (stereo not shown) [Compound 4, 1-{4-[3-(4-chlorophenyl)-4-(3,4-dimethylphenyl)but-1-yn-1-yl]benzyl}azetidine-3-carboxylic acid]
- pEC50: 6.89

SMILES: O=C(O)C1CN(Cc2ccc(C#CC(Cc3ccc(Cl)c(Cl)c3)c3cccc(F)c3)cc2)C1 (stereo not shown) [Compound 5, 1-{4-[4-(3,4-Dichloro-phenyl)-3-(3-fluoro-phenyl)-but-1-ynyl]-benzyl}-azetidine-3-carboxylic acid]
- pEC50: 6.51

SMILES: Cc1ccc(CC(/C=C/c2ccc(CN3CC(C(=O)O)C3)cc2)c2cccc(F)c2)cc1C (stereo not shown) [Compound 6, 1-{4-[(1E)-4-(3,4-dimethylphenyl)-3-(3-fluorophenyl)but-1-en-1-yl]benzyl}azetidine-3-carboxylic acid]
- pEC50: 7.23

SMILES: Cc1cccc(C(C#Cc2ccc(CN3CC(C(=O)O)C3)cc2)Cc2ccc(C)c(C)c2)c1 (stereo not shown) [Compound 7, 1-{4-[4-(3,4-dimethylphenyl)-3-(3-methylphenyl)but-1-yn-1-yl]benzyl}azetidine-3-carboxylic acid]
- pEC50: 7.04
